Data published in ChEMBL document CHEMBL1201862, “PubChem BioAssay data set” (2004).
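Results reflect a 48-hour exposure of cells in 96-well plates to compound at five concentrations. Abbreviation: GI50, concentration required for 50% inhibition of growth.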 The source made the active and inactive calls. Cut-off read from the data, not from the text of the source: active = GI50 up to about 1.1 µM and inactive = higher.

Experiments:
Experiment in all cases: NCI anticancer screen, dose series, 48 h
RXF 393 = system: RXF 393
CCRF-CEM = system: CCRF-CEM
A549 = system: A549
SK-OV-3 = system: SK-OV-3
UACC-62 = system: UACC-62
OVCAR-5 = system: OVCAR-5
OVCAR-4 = system: OVCAR-4
SN12C = system: SN12C
NCI-H23 = system: NCI-H23
COLO 205 = system: COLO 205
OVCAR-8 = system: OVCAR-8
MOLT-4 = system: MOLT-4
SK-MEL-28 = system: SK-MEL-28
SF-295 = system: SF-295
M14 = system: M14
SW-620 = system: SW-620
HCC 2998 = system: HCC 2998
TK-10 = system: TK-10
SF-539 = system: SF-539
Malme-3M = system: Malme-3M
RPMI-8226 = system: RPMI-8226
HL-60 = system: HL-60
NCI-H226 = system: NCI-H226
DLD-1 = system: DLD-1
SNB-19 = system: SNB-19
KM12 = system: KM12
UACC-257 = system: UACC-257
SK-MEL-2 = system: SK-MEL-2
OVCAR-3 = system: OVCAR-3
SK-MEL-5 = system: SK-MEL-5
U-251 = system: U-251
EKVX = system: EKVX
HOP-92 = system: HOP-92
KM-20L2 = system: KM-20L2
786-0 = system: 786-0
HCT-15 = system: HCT-15
LXFL 529 = system: LXFL 529
ACHN = system: ACHN
UO-31 = system: UO-31
XF498 = system: XF498
NCI-H522 = system: NCI-H522
HT-29 = system: HT-29
M19-MEL = system: M19-MEL
K562 = system: K562
HCT-116 = system: HCT-116
IGROV-1 = system: IGROV-1
NCI-H460 = system: NCI-H460
HOP-62 = system: HOP-62
DMS-114 = system: DMS-114
SNB-75 = system: SNB-75
A498 = system: A498
CAKI-1 = system: CAKI-1
LOX IMVI = system: LOX IMVI
SNB-78 = system: SNB-78
DMS-273 = system: DMS-273

With `CN(N=O)C(=O)N(N)CCCCC(NC(=O)OCc1ccccc1)C(=O)OCc1ccccc1` (stereo not given) the GI50 (RXF 393) was 12.9 µM (inactive), the GI50 (CCRF-CEM) was 14.3 µM (inactive) and the GI50 (A549) was 81.8 µM (inactive). For the same molecule, the GI50 (SK-OV-3) was > 100 µM (inactive), the GI50 (UACC-62) was 18.5 µM (inactive) and the GI50 (OVCAR-5) was > 100 µM (inactive). The GI50 (OVCAR-4) was 33.7 µM (inactive), the GI50 (SN12C) was 18.6 µM (inactive) and the GI50 (NCI-H23) was 14.6 µM (inactive). For the same molecule, the GI50 (COLO 205) was 18.5 µM (inactive), the GI50 (OVCAR-8) was 33.7 µM (inactive) and the GI50 (MOLT-4) was 18.9 µM (inactive). For the same molecule, the GI50 (SK-MEL-28) was > 100 µM (inactive), the GI50 (SF-295) was 75.9 µM (inactive) and the GI50 (M14) was 23 µM (inactive). The GI50 (SW-620) was 65.9 µM (inactive), the GI50 (HCC 2998) was 18.2 µM (inactive) and the GI50 (TK-10) was > 100 µM (inactive). For the same molecule, the GI50 (SF-539) was 16 µM (inactive), the GI50 (Malme-3M) was 40.1 µM (inactive) and the GI50 (RPMI-8226) was > 100 µM (inactive). The GI50 (HL-60) was 5.25 µM (inactive), the GI50 (NCI-H226) was 22.2 µM (inactive) and the GI50 (DLD-1) was 58.7 µM (inactive). For the same molecule, the GI50 (SNB-19) was > 100 µM (inactive), the GI50 (KM12) was 38.8 µM (inactive) and the GI50 (UACC-257) was 18.7 µM (inactive). For the same molecule, the GI50 (SK-MEL-2) was 91.6 µM (inactive), the GI50 (OVCAR-3) was 23.1 µM (inactive) and the GI50 (SK-MEL-5) was 44.7 µM (inactive). The GI50 (U-251) was 38.9 µM (inactive), the GI50 (EKVX) was > 100 µM (inactive) and the GI50 (HOP-92) was 10.7 µM (inactive). For the same molecule, the GI50 (KM-20L2) was > 100 µM (inactive), the GI50 (786-0) was 18.5 µM (inactive) and the GI50 (HCT-15) was 90.4 µM. The GI50 (LXFL 529) was 53.2 µM (inactive), the GI50 (ACHN) was 19 µM (inactive) and the GI50 (UO-31) was 18.7 µM (inactive). For the same molecule, the GI50 (XF498) was 8.41 µM (inactive), the GI50 (NCI-H522) was 11.7 µM (inactive) and the GI50 (HT-29) was 79.6 µM (inactive). For the same molecule, the GI50 (M19-MEL) was 36.1 µM (inactive), the GI50 (K562) was 45.4 µM (inactive) and the GI50 (HCT-116) was 29.8 µM (inactive). For the same molecule, the GI50 (IGROV-1) was 49.2 µM (inactive), the GI50 (NCI-H460) was 32.5 µM (inactive) and the GI50 (HOP-62) was 9.75 µM (inactive). The GI50 (DMS-114) was 44 µM (inactive), the GI50 (SNB-75) was 20.6 µM (inactive) and the GI50 (A498) was 69.7 µM (inactive). The GI50 (CAKI-1) was 25.6 µM (inactive), the GI50 (LOX IMVI) was 17.9 µM (inactive) and the GI50 (SNB-78) was 31.9 µM (inactive). The GI50 (DMS-273) was 32.2 µM (inactive).
